The structures appear in SMILES notation. Where two headings read alike, the source gives them in different places. Bounds are passed on as bounds.

Assay [1] addresses GSK3α (GST-full length GSK3α) (Homo sapiens (Human), UniProt P49840). The assay can be described thus: GSK3α TR-FRET kinase assay. In kind it is biochemical. The following applies: IC50. The method, then:
(§1) TR-FRET Assay: The assay was performed in a white, 384 well, low volume, flat bottom plate (Grenier). After a 30 minute preincubation in assay buffer with the indicated concentration of compound, the kinase activity was initiated by the addition of the substrates. 1 nM GSK3α (GST-full length GSK3α [SignalChem G08-10G]) or 1 nM GSK3b (GST-full length GSK3b: [SignalChem G08-9G]) were then incubated at ambient temperature for 100 minutes in 10 μL of 50 mM Tris, pH 7.5, 20 mM MgCl2, 0.05 mM DTT, 100 μg/mL BSA and 1% DMSO, with 200 nM biotinylated peptide substrate (biotinylated and S645 phosphorylated glycogen synthase 631-650) and either 4 μM ATP (GSK3α, Table 16) or 2 μM ATP (GSK3b, Table 16) or 1 mM ATP (Table 17). The kinase activity was quenched with 2 μL of 250 mM EDTA. A 10 μL volume of 40 nM Strepavidin-d2, 2 nM Tb^2+-pSer641 antibody in TR-FRET Detection Buffer (Invitrogen) was then added. After 60 min at room temperature the plate was read on Envision plate reader using Ex: 340 nm, Em: 615 nm and […]. The normalized 665/615 Signal ratio versus log compound concentration was analyzed by XLFIT to yield IC50 values.
On the technique in general: TR-FRET usually uses a lanthanide donor and a delayed reading to cut background.

Assay [2] addresses GSK3b (GST-full length GSK3b) (Homo sapiens (Human), UniProt P49841). The assay can be described thus: GSK3b TR-FRET kinase assay. It is filed as biochemical. The method, then: as §1
Where [3] appears, read: 1 nM GSK3α, 4 μM ATP, 30 minute preincubation, geometric mean, read-out: GSK3-A TR-FRET BIOCHEMICAL (TR-FRET), GMean.
The mark [4] stands for this setting: 1 nM GSK3b, 2 μM ATP, 30 minute preincubation, geometric mean, read-out: GSK3-B TR-FRET BIOCHEMICAL (TR-FRET), GMean, IC50.
Setting [5] is: 1 nM GSK3α, 4 μM ATP, 30 minute preincubation, Table 16, read-out: GSK3-A TR-FRET BIOCHEMICAL (TR-FRET).
Where [6] appears, read: 1 nM GSK3b, 2 μM ATP, 30 minute preincubation, Table 16, read-out: GSK3-B TR-FRET BIOCHEMICAL (TR-FRET), IC50.
The mark [7] stands for this setting: read-out: GSK3-B (TR-FRET 1 mM ATP), GMean, IC50, 1 mM ATP, geometric mean.
[8] abbreviates: 1 nM GSK3b, 2 μM ATP, 30 minute preincubation, read-out: GSK3-B TR-FRET BIOCHEMICAL (TR-FRET), IC50.
[9] abbreviates: 1 nM GSK3b, 2 μM ATP, 30 minute preincubation, Table 16, read-out: GSK3-B TR-FRET BIOCHEMICAL (TR-FRET).

GSK3α (GST-full length GSK3α), sequence (P49840 whole entry): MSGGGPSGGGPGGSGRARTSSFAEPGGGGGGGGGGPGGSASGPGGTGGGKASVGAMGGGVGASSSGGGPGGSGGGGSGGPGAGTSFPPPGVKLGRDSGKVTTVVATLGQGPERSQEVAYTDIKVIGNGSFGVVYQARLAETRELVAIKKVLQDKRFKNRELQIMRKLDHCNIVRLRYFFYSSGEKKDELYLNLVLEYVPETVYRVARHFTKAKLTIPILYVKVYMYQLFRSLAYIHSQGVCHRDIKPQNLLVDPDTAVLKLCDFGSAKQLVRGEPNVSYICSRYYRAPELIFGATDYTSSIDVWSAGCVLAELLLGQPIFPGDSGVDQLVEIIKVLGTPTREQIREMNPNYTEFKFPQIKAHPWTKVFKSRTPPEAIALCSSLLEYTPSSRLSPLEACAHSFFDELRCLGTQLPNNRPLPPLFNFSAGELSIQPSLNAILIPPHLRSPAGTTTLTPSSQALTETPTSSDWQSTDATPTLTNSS
GSK3b (GST-full length GSK3b), sequence (P49841 whole entry): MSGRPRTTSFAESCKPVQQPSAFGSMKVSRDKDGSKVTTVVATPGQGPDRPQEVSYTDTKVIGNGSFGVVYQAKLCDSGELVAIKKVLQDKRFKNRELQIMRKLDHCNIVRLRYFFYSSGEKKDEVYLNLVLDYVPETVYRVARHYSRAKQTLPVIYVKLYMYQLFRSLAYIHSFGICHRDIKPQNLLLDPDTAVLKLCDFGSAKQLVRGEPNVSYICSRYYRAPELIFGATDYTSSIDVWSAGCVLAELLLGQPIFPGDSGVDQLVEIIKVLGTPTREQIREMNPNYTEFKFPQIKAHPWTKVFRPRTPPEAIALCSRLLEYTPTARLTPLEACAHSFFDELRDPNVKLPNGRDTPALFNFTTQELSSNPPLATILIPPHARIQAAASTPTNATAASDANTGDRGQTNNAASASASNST

For the molecule `CCC1(c2cccc(C(F)(F)F)c2)C2=C(CC(C)CC2=O)Nc2n[nH]cc21` (mixture of isomers) [Compound 801397], the IC50 in assay [1] (setting [3]) was not above 100 nM; in assay [2] (setting [4]), 100 to 1000 nM.

For `CCC1(c2cccc(Br)c2)C2=C(CC(C)(C)C(F)C2=O)Nc2n[nH]cc21` (mixture of isomers) [Compound 826764], the figures for the IC50 in assay [1] (setting [3]) and in assay [2] (setting [4]) were not above 100 nM and 100 to 1000 nM, respectively.

On to `CCC1(c2cccc(N3CCCC3C)c2)C2=C(CC(C)(C)CC2=O)Nc2n[nH]cc21` (mixture of isomers) [Compound 885188], for which the IC50 in assay [1] (setting [5]) and in assay [2] (setting [6]) was 100 to 1000 nM each time.

In the case of `CCC1(c2cccc(N3CCCCC3C)c2)C2=C(CC(C)(C)CC2=O)Nc2n[nH]cc21` (mixture of isomers) [Compound 885217], the IC50 in assay [1] (setting [5]) and in assay [2] (setting [6]) was 100 to 1000 nM each time.

`CCC1(c2cccc(-c3ccncc3C)c2)C2=C(CC(C)(COC)NC2=O)Nc2n[nH]cc21` (mixture of isomers) [Compound 948127]: the IC50 is 100 to 1000 nM in assay [1] (setting [3]) and more than 5000 nM in assay [2] (setting [4]).

Turning to `CC(C)(C)Cc1[nH]nc2c1C(C)(c1cc(S(C)(=O)=O)ccc1F)C1=C(CC(C)(C)CC1=O)N2` (stereo not drawn) [Compound 125977], the IC50 in assay [2] (setting [7]) is more than 5000 nM.

With `CN(C)S(=O)(=O)c1cccc(C2(C)C3=C(CC(C)(C)CC3=O)Nc3n[nH]c(CC(C)(C)C)c32)c1` (stereo not drawn) [Compound 126013], the IC50 in assay [2] (setting [7]) is more than 5000 nM.

Regarding `C[S+]([O-])c1cccc(C2(C)C3=C(CC(C)(C)CC3=O)Nc3n[nH]c(CC(C)(C)C)c32)c1` (stereo not drawn) [Compound 126193], the IC50 in assay [2] (setting [7]) was more than 5000 nM.

`Cn1cc(-c2cccc(C3(C)C4=C(CC(C)(C)CC4=O)Nc4n[nH]c(CC(C)(C)C)c43)c2)cn1` (stereo not drawn) [Compound 126394]: the IC50 in assay [1] (read-out: GSK3-A (TR-FRET 1 mM ATP), GMean, 1 mM ATP, geometric mean) is more than 5000 nM.

For `Cc1ccc(S(C)(=O)=O)cc1C1(C)C2=C(CC(C)(C)CC2=O)Nc2n[nH]c(CC(C)(C)C)c21` (stereo not drawn) [Compound 126398], the IC50 in assay [2] (setting [7]) was more than 5000 nM.

As to `CC(C)(C)Cc1[nH]nc2c1C(C)(c1cccc(N3CCOCC3)c1)C1=C(CC(C)(C)CC1=O)N2` (stereo not drawn) [Compound 126399], in assay [2] (setting [7]), the IC50 was more than 5000 nM.

Turning to `CCC1(c2cccc(C3CCOCC3)c2)C2=C(CC(C)(C)CC2=O)Nc2n[nH]cc21` (stereo not drawn) [Compound 791273], in assay [2] (setting [4]), the IC50 lay in the range of 100 to 1000 nM.

Turning to `CCC1(c2cccc(-c3ccncn3)c2)C2=C(CC(C)(C)CC2=O)Nc2n[nH]cc21` (stereo not drawn) [Compound 810488], the IC50 in assay [2] (setting [4]) is 100 to 1000 nM.

Regarding `CCC1(c2cccc(C(F)(F)F)c2)C2=C(CC(C)NC2=O)Nc2n[nH]cc21` (stereo not drawn) [Compound 912096], in assay [2] (setting [8]), the IC50 lay in the range of 100 to 1000 nM.

Turning to `CCC1(c2cccc(C(F)(F)F)c2)C2=C(Nc3n[nH]cc31)C(C)N(C)C2=O` (stereo not drawn) [Compound 913454], the IC50 in assay [2] (setting [9]) lay in the range of 100 to 1000 nM.

Turning to `CC[C@@]1(c2cccc(C(F)(F)F)c2)C2=C(Nc3n[nH]cc31)[C@H](C)N(C)C2=O` [Compound 913473], the IC50 in assay [2] (setting [9]) lay in the range of 100 to 1000 nM.

In the case of `CCC1(c2cccc(-c3cnn(C)c3)c2)C2=C(CC(C)(C)NC2=O)Nc2n[nH]c(C)c21` (stereo not drawn) [Compound 944027], the IC50 in assay [2] (setting [8]) was in the range of 100 to 1000 nM.

As for `CCC1(c2cccc(-c3ncnn3C)c2)C2=C(CC(C)(C)CC2=O)Nc2n[nH]cc21` (stereo not drawn) [Compound 945472], the IC50 in assay [2] (setting [9]) was 100 to 1000 nM.

For `CCC1(c2cccc(N(C)c3cc(C)ccn3)c2)C2=C(CC(C)(C)CC2=O)Nc2n[nH]cc21` (stereo not drawn) [Compound 945609], the IC50 in assay [2] (setting [9]) lay in the range of 100 to 1000 nM.

Take `CCC1(c2cccc(-c3c(C)nnn3C)c2)C2=C(CC(C)(C)CC2=O)Nc2n[nH]cc21` (stereo not drawn) [Compound 946099]: the IC50 in assay [2] (setting [7]) fell in the range of 100 to 1000 nM.

Turning to `CCC1(c2cccc(N3CCCCC3)c2)C2=C(CC(C)(C)NC2=O)Nc2n[nH]c(C(F)(F)F)c21` (stereo not drawn) [Compound 947861], the IC50 in assay [2] (setting [7]) lay in the range of 100 to 1000 nM.

Turning to `CCC1(c2cccc(C(F)(F)F)c2)C2=C(CCN(c3cccc(C)c3)C2=O)Nc2n[nH]cc21` (stereo not drawn) [Compound 948052], in assay [2] (setting [4]), the IC50 was 100 to 1000 nM.

For the origin of these results see patent US20250313563A1, “GLYCOGEN SYNTHASE KINASE 3 INHIBITORS AND USES THEREOF” (The Broad Institute, Inc., priority 2022, published 2025).
